Results as given in ChEMBL document CHEMBL1201862, “PubChem BioAssay data set” (2004).
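Cultured in 96-well plates, cells were exposed to test compound for 48 hours across five concentrations. Here, GI50 denotes the concentration required for 50% inhibition of growth.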 Activity calls are given as the source filed them. No stated cut-off is given here; in the data, active = GI50 up to about 1.1 µM and inactive = higher.

Legend:
Assay in all cases: NCI tumour cell line growth inhibition, 48 h
[1] = test system: HCT-15
[2] = test system: MCF7
[3] = test system: SW-620
[4] = test system: UACC-257
[5] = test system: SK-MEL-28
[6] = test system: NCI-H226
[7] = test system: T47D
[8] = test system: HCT-116
[9] = test system: NCI/ADR-RES
[10] = test system: A498
[11] = test system: NCI-H460
[12] = test system: CAKI-1
[13] = test system: TK-10
[14] = test system: MDA-MB-435
[15] = test system: DU-145
[16] = test system: SN12C
[17] = test system: SK-OV-3
[18] = test system: Malme-3M
[19] = test system: A549
[20] = test system: HOP-92

SMILES | GI50 [1] | GI50 [2] | GI50 [3] | GI50 [4] | GI50 [5] | GI50 [6] | GI50 [7] | GI50 [8] | GI50 [9] | GI50 [10] | GI50 [11] | GI50 [12] | GI50 [13] | GI50 [14] | GI50 [15] | GI50 [16] | GI50 [17] | GI50 [18] | GI50 [19] | GI50 [20]
CC(=O)NC1CCC(NC(=O)OC(C)(C)C)C(NC(=O)OC(C)(C)C)C1 (stereo not given) | > 100 µM | > 100 µM (inactive) | > 100 µM (inactive) | > 100 µM (inactive) | > 100 µM (inactive) | > 100 µM (inactive) | > 100 µM (inactive) | > 100 µM (inactive) | > 100 µM (inactive) | > 100 µM (inactive) | > 100 µM (inactive) | > 100 µM (inactive) | > 100 µM (inactive) | > 100 µM (inactive) | > 100 µM (inactive) | > 100 µM (inactive) | > 100 µM (inactive) | > 100 µM (inactive) | > 100 µM (inactive) | > 100 µM (inactive)
CC(C(=O)c1ccccc1)C(c1ccccc1)N1CCOCC1 (stereo not given) | > 100 µM | > 100 µM (inactive) | > 100 µM (inactive) | > 100 µM (inactive) | > 100 µM (inactive) | > 100 µM (inactive) | > 100 µM (inactive) | > 100 µM (inactive) | > 100 µM (inactive) | > 100 µM (inactive) | > 100 µM (inactive) | > 100 µM (inactive) | > 100 µM (inactive) | > 100 µM (inactive) | > 100 µM (inactive) | > 100 µM (inactive) | > 100 µM (inactive) | > 100 µM (inactive) | > 100 µM (inactive) | > 100 µM (inactive)
CN(C)CCCN=C(N)N | > 100 µM | > 100 µM (inactive) | > 100 µM (inactive) | > 100 µM (inactive) | > 100 µM (inactive) | > 100 µM (inactive) | > 100 µM (inactive) | > 100 µM (inactive) | > 100 µM (inactive) | > 100 µM (inactive) | > 100 µM (inactive) | > 100 µM (inactive) | > 100 µM (inactive) | > 100 µM (inactive) | > 100 µM (inactive) | > 100 µM (inactive) | > 100 µM (inactive) | > 100 µM (inactive) | > 100 µM (inactive) | > 100 µM (inactive)
COC(=O)c1cc2ccc(O)c(O)c2cn1 | 20.3 µM | 3.56 µM (inactive) | 16.6 µM (inactive) | 15.4 µM (inactive) | 20.4 µM (inactive) | 18.2 µM (inactive) | > 10 µM (inactive) | 15.7 µM (inactive) | 7.59 µM (inactive) | > 10 µM (inactive) | 19 µM (inactive) | 13 µM (inactive) | 20 µM (inactive) | 1.73 µM (inactive) | 67.8 µM (inactive) | 9.1 µM (inactive) | 27.5 µM (inactive) | 14.4 µM (inactive) | 23.6 µM (inactive) | 12.6 µM (inactive)
C1CC2CN(CCCN3CCOCC3)C(C1)O2 (stereo not given) | > 100 µM | > 100 µM (inactive) | > 100 µM (inactive) | > 100 µM (inactive) | > 100 µM (inactive) | > 100 µM (inactive) | > 100 µM (inactive) | > 100 µM (inactive) | > 100 µM (inactive) | > 100 µM (inactive) | > 100 µM (inactive) | > 100 µM (inactive) | > 100 µM (inactive) | > 100 µM (inactive) | > 100 µM (inactive) | > 100 µM (inactive) | > 100 µM (inactive) | > 100 µM (inactive) | > 100 µM (inactive) | > 100 µM (inactive)
CC(SCc1ccccc1)C(=O)O (stereo not given) | > 100 µM | > 100 µM (inactive) | > 100 µM (inactive) | > 100 µM (inactive) | > 100 µM (inactive) | > 100 µM (inactive) | > 100 µM (inactive) | > 100 µM (inactive) | > 100 µM (inactive) | > 100 µM (inactive) | > 100 µM (inactive) | > 100 µM (inactive) | > 100 µM (inactive) | > 100 µM (inactive) | > 100 µM (inactive) | > 100 µM (inactive) | > 100 µM (inactive) | > 100 µM (inactive) | > 100 µM (inactive) | > 100 µM (inactive)
